Experimental data: patent publication US20240325398A1, “COMBINATION THERAPIES” (Infinity Pharmaceuticals, Inc., priority 2014, published 2024)

Key:
TMD8 = assay: Combination study, ATPLite 72 h, dose matrix (Synergy Score, CI50); details: combination with Compound 1; TMD8; 72 h
Procedure: (§1) Cells are thawed from a liquid nitrogen preserved state. Once cells have been expanded and divide at their expected doubling times, screening begins. Cells are seeded in growth media in either black 1536-well or 384-well tissue culture treated plates. Cells are then equilibrated in assay plates via centrifugation and placed in incubators attached to the Dosing Modules at 37° C. for 24 hours before treatment. […] These Tzero (To) plates are read using ultra-sensitive luminescence on Envision plate readers (Perkin Elmer). Treated assay plates are incubated with compound for 72 hours. After 72 hours, plates are developed for endpoint analysis using ATPLite. All data points are collected via automated processes, quality controlled and analyzed using Zalicus software.
(§2) where T is treated cell count and V is untreated (vehicle) cell count (at 72 hours). I ranges from 0% (when T=V) to 100% (when T=0). […] The measure of effect in the experiment can be the inhibition of cellular response relative to the untreated level (vehicle alone). […] The inhibition ranges from 0% at the untreated level to 100% when T=0. Inhibition levels are negative for agents that actually increase levels. Other effect measures, such as an activity ratio r=T/V may be more appropriate for some assays. When activity ratios (e.g, fold increase over stimulated control) are being used, the effect can be measured using an induction 1=ln(T/V). With this definition, all effect expressions are the same as for inhibition.
(§3) Growth Inhibition (GI) is used as a measure of cell viability. […] A GI reading of 100% represents complete growth inhibition—T72 compound-treated and T0 vehicle signals are matched. […] A GI reading of 200% represents complete death of all cells in the culture well. Compounds reaching an activity plateau of GI 200% are considered cytotoxic. GI is calculated by applying the following test and equation:
(§4) Combination analysis data were collected in a 6×6 dose matrix. Synergy is calculated by comparing a combination's response to those of its single compound, against the drug-with-itself dose-additive reference model. Deviations from dose additivity may be assessed visually on an isobologram or numerically with a Combination Index (CI). […] Additive effect is CI=1.0. […] Antagonistic effect is CI>1.0.
The isobologram was drawn by identifying the locus of concentrations that correspond to crossing the indicated inhibition level. This is done by finding the crossing point for each single agent concentration in a dose matrix across the concentrations of the other single agent. Practically, each vertical concentration CY is held fixed while a bisection algorithm is used to identify the horizontal concentration CX in combination with that vertical dose that gives the chosen effect level in the response surface Z(CX,CY). These concentrations are then connected by linear interpolation to generate the isobologram display. For synergistic interactions, the isobologram contour fall below the additivity threshold and approaches the origin, and an antagonistic interaction would lie above the additivity threshold. The error bars represent the uncertainty arising from the individual data points used to generate the isobologram. The uncertainty for each crossing point is estimated from the response errors using bisection to find the concentrations where Z−αZ(CX,CY) and Z+σZ(CX,CY) cross Icut, where αZ is the standard deviation of the residual error on the effect scale.
(§5) To measure combination effects in excess of Loewe additivity, a scalar measure to characterize the strength of synergistic interaction termed the Synergy Score is devised. The Synergy Score is calculated as:
The fractional inhibition for each component agent and combination point in the matrix is calculated relative to the median of all vehicle-treated control wells.

DOHH-2 = assay: as above; details: combination with Compound 1, 72 h
U-2932 = assay: as above; details: combination with Compound 1, 72 h
RPMI-8226 = assay: as above; details: combination with Compound 1
Farage = assay: as above; details: combination with Compound 1; Farage; 72 h
[1] = as above; details: combination with Compound 1; OPM-2
OMP-2 = assay: as above; details: combination with Compound 1; OPM-2
SU-DHL-4-epst = assay: as above; details: combination with Compound 1, 72 h
OCI-Ly3 = assay: as above; details: combination with Compound 1; OCI-Ly3; 72 h
SU-DHL-10-epst = assay: as above; details: combination with Compound 1, 72 h
Procedure: as §1
The measure of effect in the experiment can be the inhibition of cellular response relative to the untreated level (vehicle alone). […] The inhibition ranges from 0% at the untreated level to 100% when T=0. Inhibition levels are negative for agents that actually increase levels.
as §3, §4, §5
(§6) The fractional inhibition for each component agent and combination point in the matrix is calculated relative to the median of all vehicle-treated control wells. The Synergy Score equation integrates the experimentally-observed activity volume at each point in the matrix in excess of a model surface numerically derived from the activity of the component agents using the Loewe model for additivity. Additional terms in the Synergy Score equation (above) are used to normalize for various dilution factors used for individual agents and to allow for comparison of synergy scores across an entire experiment. The inclusion of positive inhibition gating or an Idata multiplier removes noise near the zero effect level, and biases results for synergistic interactions at that occur at high activity levels.
Loewe Volume (Loewe Vol) is used to assess the overall magnitude of the combination interaction in excess of the Loewe additivity model. Loewe Volume is particularly useful when distinguishing synergistic increases in a phenotypic activity (positive Loewe Volume) versus synergistic antagonisms (negative Loewe Volume). […] This model defines additivity as a non-synergistic combination interaction where the combination dose matrix surface should be indistinguishable from either drug crossed with itself. The calculation for Loewe additivity is:

NCI-H929 = assay: as above; details: combination with Compound 1
Mino = assay: as above; details: combination with Compound 1
RL = assay: as above; details: combination with Compound 1, 72 h
WSU-NHL = assay: as above; details: combination with Compound 1, 72 h
Procedure: as §1, §2, §3, §4, §5, §6
(§7) Loewe Volume (Loewe Vol) is used to assess the overall magnitude of the combination interaction in excess of the Loewe additivity model. Loewe Volume is particularly useful when distinguishing synergistic increases in a phenotypic activity (positive Loewe Volume) versus synergistic antagonisms (negative Loewe Volume). […] This model defines additivity as a non-synergistic combination interaction where the combination dose matrix surface should be indistinguishable from either drug crossed with itself.

Jeko-1 = assay: as above; details: combination with Compound 1
HBL-1 = assay: as above; details: combination with Compound 1, 72 h
HH = assay: as above; assay type: cell-based; details: combination with Compound 1
Procedure: The method is described as follows.
Additive effect is CI=1.0. […] Antagonistic effect is CI>1.0.
The Synergy Score is calculated as: […]

KARPAS-299 = assay: as above; details: combination with Compound 1
KARPAS-422 = assay: as above; details: combination with Compound 1, 72 h
OCI-Ly7 = assay: as above; details: combination with Compound 1, 72 h
GRANTA-519 = assay: as above; details: combination with Compound 1
Procedure: as §1, §2, §3, §4, §5, §6, §7

Which results are given for `CC(C)C[C@H](NC(=O)[C@H](Cc1ccccc1)NC(=O)c1cnccn1)B(O)O` [bortezomib, [(1R)-3-methyl-1-({(2S)-3-phenyl-2-[(pyrazin-2-ylcarbonyl)amino]propanoyl}amino)butyl]boronic acid]?
CI50 growth inhibition (TMD8): U (U=0.7 to <1); CI50 inhibition (TMD8): U (U=0.7 to <1); CI50 growth inhibition (DOHH-2): U (U=0.7 to <1); CI50 inhibition (DOHH-2): U (U=0.7 to <1); CI50 growth inhibition (U-2932): U (U=0.7 to <1); CI50 inhibition (U-2932): W (W=≥1); CI50 growth inhibition (RPMI-8226): U (U=0.7 to <1); CI50 inhibition (RPMI-8226): U (U=0.7 to <1); CI50 growth inhibition (Farage): U (U=0.7 to <1); CI50 inhibition (Farage): U (U=0.7 to <1); CI50 growth inhibition [1]: W (W=≥1); CI50 inhibition (OMP-2): W (W=≥1); CI50 growth inhibition (SU-DHL-4-epst): U (U=0.7 to <1); CI50 inhibition (SU-DHL-4-epst): T (T=0.5 to <0.7); CI50 growth inhibition (OCI-Ly3): U (U=0.7 to <1); CI50 inhibition (OCI-Ly3): W (W=≥1); CI50 growth inhibition (SU-DHL-10-epst): U (U=0.7 to <1); CI50 inhibition (SU-DHL-10-epst): U (U=0.7 to <1); CI50 growth inhibition (NCI-H929): U (U=0.7 to <1); CI50 inhibition (NCI-H929): W (W=≥1); CI50 growth inhibition (Mino): U (U=0.7 to <1); CI50 inhibition (Mino): U (U=0.7 to <1); CI50 growth inhibition (RL): U (U=0.7 to <1); CI50 inhibition (RL): W (W=≥1); CI50 growth inhibition (WSU-NHL): U (U=0.7 to <1); CI50 inhibition (WSU-NHL): U (U=0.7 to <1); CI50 growth inhibition (Jeko-1): U (U=0.7 to <1); CI50 inhibition (Jeko-1): U (U=0.7 to <1); CI50 growth inhibition (HBL-1): U (U=0.7 to <1); CI50 inhibition (HBL-1): U (U=0.7 to <1); CI50 growth inhibition (HH): U (U=0.7 to <1); CI50 inhibition (HH): U (U=0.7 to <1); CI50 growth inhibition (KARPAS-299): U (U=0.7 to <1); CI50 inhibition (KARPAS-299): U (U=0.7 to <1); CI50 growth inhibition (KARPAS-422): W (W=≥1); CI50 inhibition (KARPAS-422): W (W=≥1); CI50 growth inhibition (OCI-Ly7): U (U=0.7 to <1); CI50 inhibition (OCI-Ly7): U (U=0.7 to <1); CI50 growth inhibition (GRANTA-519): T (T=0.5 to <0.7); CI50 inhibition (GRANTA-519): U (U=0.7 to <1)
